In US8513275B2 (Salix Pharmaceuticals, Ltd, priority 2010, dated 2013):
“Also recorded” adds a separate entry of the source. Like-named read-outs stand apart in the source and are kept apart here. Marks after values point to notes of the source that are not given here. Values belong to the compound of their own block, whether it stands above or below them.

Key:
[1] = Particle size distributions for Rifaximin forms; type: physicochemical; conditions: for d10: 10% of the total volume of particles less than the indicated size; for d50: 50% of the total volume of particles less than the indicated size; for d90: 90% of the total volume of particles less than the indicated size
[2] = Dynamic vapor sorption (moisture sorption, moisture balance) with post-sorption XRPD; type: physicochemical; conditions: for weight loss from 95 to 5% RH: desorption 95-5% RH; for post-moisture sorption (post-MB / post-DVS) XRPD result: solid after DVS cycle; for weight gain from 5 to 95% RH: sorption 5-95% RH; for overall weight loss in moisture sorption: whole sorption/desorption cycle
Experimental: (§1) Automated vapor sorption (VS) data were collected on a VTI SGA-100 Vapor Sorption Analyzer. NaCl and PVP were used as calibration standards. Samples were not dried prior to analysis. […] The equilibrium criterion used for analysis was less than 0.0100% weight change in 5 minutes with a maximum equilibration time of 3 hours. Data were not corrected for the initial moisture content of the samples.
as §1, with “Automated dynamic” for “Automated”, “(DVS)” for “(VS)”, “hours.” for “hours. Data were not corrected for the initial moisture content of the samples.”

[3] = Ambient storage / exposure to ambient conditions, XRPD; type: physicochemical; conditions: for XRPD result after ambient storage: 8 days of ambient storage, large-scale sample
From the text: Form θ drying and physical stability evaluation was not formally included in the protocol. […] The initial sample was generated from nitrogen drying of Form ζ. The initial XRPD pattern was acquired utilizing parameters not consistent with the other data acquisition.

[4] = Relative humidity stressing at ambient temperature, XRPD of stressed solid; type: physicochemical
[5] = VS w/ACN
Experimental: Subsequent characterization of cocrystal 2 was conducted quickly after isolating vapor stressed samples.
The 20-mL vial was capped and left at ambient conditions for vapor stress.

[6] = water slurry, 5 minutes, 3 hours and 7 hours
Experimental: In order to be able to measure the aqueous solubility (equilibrium or kinetic) of a cocrystal, it should remain intact upon exposure to aqueous conditions for some duration. If it dissociates or changes forms quickly upon contact with water, intrinsic dissolution may be introduced as an alternative to solubility, in which dissolution of a pellet of the cocrystal is measured; however, the cocrystal must not change form upon compression.

[7] = 1000 psi, 1 min.
[8] = Properties of the Rifaximin:piperazine cocrystals (summary, Table 12); conditions: summary column of Table 12
[9] = listed as As-Prepared Rifaximin Form κ
[10] = listed as post-drying rifaximin Form κ

d10 [1]: 0.399 μm
d50 [1]: 8.629 μm
d90 [1]: 33.891 μm
Structure (SMILES): CO[C@H]1/C=C/O[C@@]2(C)Oc3c(C)c(O)c4c(O)c(c5c(nc6cc(C)ccn65)c4c3C2=O)NC(=O)/C(C)=C\C=C\[C@H](C)[C@H](O)[C@@H](C)[C@@H](O)[C@@H](C)[C@H](OC(C)=O)[C@@H]1C [As received, rifaximin]

weight loss from 95 to 5% RH ([2]; listed as Rifaximin Form θ): 5.826% wt lost from 95%-5% RH
weight loss from 95 to 5% RH ([2]; listed as rifaximin Form θ): 5.8%
weight loss upon equilibration at 5% RH ([2]; initial equilibration at 5% RH, listed as rifaximin Form θ): 7.3%
post-moisture sorption (post-MB / post-DVS) XRPD result ([2]; listed as Rifaximin Form θ): ι
post-moisture sorption (post-MB / post-DVS) XRPD result ([2]; listed as rifaximin Form θ): Form ι; also recorded: Form t
weight gain from 5 to 95% RH ([2]; listed as Rifaximin Form θ): 5.733% wt gain from 5%-95% RH
weight gain from 5 to 95% RH ([2]; listed as rifaximin Form θ): 5.7%
overall weight loss in moisture sorption ([2]; listed as rifaximin Form θ): approximately 7.4%
XRPD result after ambient storage [3]: remained Form θ
XRPD result after ambient storage ([3]; listed as Rifaximin Form θ): θ (after 8 days of ambient storage)
XRPD result on reanalysis ([3]; reanalyzed within hours, nitrogen-dried sample): conversion to Form ι
Structure (SMILES): CO[C@H]1/C=C/O[C@@]2(C)Oc3c(C)c(O)c4c(O)c(c5c(nc6cc(C)ccn65)c4c3C2=O)NC(=O)/C(C)=C\C=C\[C@H](C)[C@H](O)[C@@H](C)[C@@H](O)[C@@H](C)[C@H](OC(C)=O)[C@@H]1C [Form θ, rifaximin]
wt change upon equilibration at 5% RH ([2]; signed change, initial equilibration at 5% RH): −7.314% wt change upon equilibration at 5% RH

weight loss from 95 to 5% RH [2, 9]: 12% wt loss from 95 to 5% RH.
weight loss from 95 to 5% RH ([2]; listed as rifaximin Form κ): 12%
weight loss upon equilibration at 5% RH ([2]; initial equilibration at 5% RH, listed as As-Prepared Rifaximin Form κ): 7.5% wt loss upon equilibration at 5% RH
weight loss upon equilibration at 5% RH ([2]; initial equilibration at 5% RH, listed as rifaximin Form κ): 7.5%
post-moisture sorption (post-MB / post-DVS) XRPD result [2, 9]: Disordered
post-moisture sorption (post-MB / post-DVS) XRPD result ([2]; listed as rifaximin Form κ): disordered
weight gain from 5 to 95% RH [2, 9]: 4.6% wt gain from 5 to 95% RH
weight gain from 5 to 95% RH ([2]; listed as rifaximin Form κ): 4.6%
overall weight loss in moisture sorption ([2]; listed as rifaximin Form κ): approximately 14.9%
d10 [1]: 15.551 μm
d50 [1]: 90.684 μm
d90 [1]: 225.815 μm
Structure (SMILES): CO[C@H]1/C=C/O[C@@]2(C)Oc3c(C)c(O)c4c(O)c(c5c(nc6cc(C)ccn65)c4c3C2=O)NC(=O)/C(C)=C\C=C\[C@H](C)[C@H](O)[C@@H](C)[C@@H](O)[C@@H](C)[C@H](OC(C)=O)[C@@H]1C [Form κ, rifaximin]
overall weight loss in moisture sorption [2, 9]: Overall wt loss = 14. 9% (equivalent to ~2 moles of IPA)

weight loss from 95 to 5% RH [2]: 11.0% wt lost from 95%-5% RH
weight loss from 95 to 5% RH [2, 10]: 11%
weight loss upon equilibration at 5% RH ([2]; initial equilibration at 5% RH): 0.1% wt loss upon equilibration at 5% RH
weight loss upon equilibration at 5% RH ([2]; initial equilibration at 5% RH, listed as post-drying rifaximin Form κ): 0.1%
post-moisture sorption (post-MB / post-DVS) XRPD result [2]: Disordered κ
post-moisture sorption (post-MB / post-DVS) XRPD result [2, 10]: disordered
weight gain from 5 to 95% RH [2]: 7.7% wt gain from 5%-95% RH
weight gain from 5 to 95% RH [2, 10]: 7.7%
overall weight loss in moisture sorption [2]: approximately 3.3%
XRPD result after humidity stress ([4]; 84% RH, RT, 19 days): Disordered κ
Structure (SMILES): CO[C@H]1/C=C/O[C@@]2(C)Oc3c(C)c(O)c4c(O)c(c5c(nc6cc(C)ccn65)c4c3C2=O)NC(=O)/C(C)=C\C=C\[C@H](C)[C@H](O)[C@@H](C)[C@@H](O)[C@@H](C)[C@H](OC(C)=O)[C@@H]1C [Post-Drying Rifaximin Form κ, rifaximin]

hygroscopicity by DVS [2]: quite hygroscopic
weight loss from 95 to 5% RH ([2]; listed as sample 4): 11.47% weight loss from 95-5% RH
weight loss upon equilibration at 5% RH ([2]; initial equilibration at 5% RH): 3.54% weight loss at 5% RH
weight gain from 5 to 95% RH ([2]; listed as sample 4): 10.78% weight gain from 5-95% RH
XRPD result after RH stress ([4]; ~97% RH, 1 week, listed as Cocrystal 1): Conversion to Rifaximin Form β-1
XRPD result after RH stress ([4]; ~97% RH, 1 week, listed as Rifaximin:Piperazine Cocrystal 1): API, Form β-1
XRPD result after RH stress ([4]; ~97% RH, 3 days, listed as Cocrystal 1): conversion to Rifaximin Form β-1
XRPD result after RH stress ([4]; ~97% RH, 3 days, listed as Rifaximin:Piperazine Cocrystal 1): API, Form β-1
XRPD result after vapor stress with ACN ([5]; 7 days): conversion to cocrystal 2
XRPD result after vapor stress with ACN ([5]; 7 days, listed as Cocrystal 1): Cocrystal 2 resulted by XRPD
XRPD result after vapor stress with ACN ([5]; 7 days, listed as Rifaximin:Piperazine Cocrystal 1): cocrystal 2^c
XRPD result after vapor stress with ACN ([5]; 24 days, sample stood capped at ambient approx. 5-6 hours before XRPD): gave cocrystal 1 by XRPD
XRPD result after vapor stress with ACN ([5]; 24 days, sample stood capped at ambient approx. 5-6 hours before XRPD, listed as Rifaximin:Piperazine Cocrystal 1): cocrystal 1^b
XRPD result after slurrying in water ([6]; listed as Rifaximin:Piperazine Cocrystal 1): API, Form β-1
XRPD result after slurrying in water ([6]; listed as Rifaximin:piperazine cocrystal 1): conversion to Rifaximin Form β-1
Structure (SMILES): C1CNCCN1.COC1C=COC2(C)Oc3c(C)c(O)c4c(O)c(c5c(nc6cc(C)ccn65)c4c3C2=O)NC(=O)C(C)=CC=CC(C)C(O)C(C)C(O)C(C)C(OC(C)=O)C1C.COC1C=COC2(C)Oc3c(C)c(O)c4c(O)c(c5c(nc6cc(C)ccn65)c4c3C2=O)NC(=O)C(C)=CC=CC(C)C(O)C(C)C(O)C(C)C(OC(C)=O)C1C (stereo not drawn) [cocrystal 1, rifaximin:piperazine cocrystal 1]
post-moisture sorption (post-MB / post-DVS) XRPD result [2]: broad peaks, similar to cocrystal 1 with additional peaks at approximately 5 and 17°2θ; also recorded: broad peaks, similar to cocrystal 1 plus peaks at approximately 5 and 17°2θ
post-moisture sorption (post-MB / post-DVS) XRPD result ([2]; listed as Cocrystal 1): conversion to a material similar to cocrystal 1 plus two additional peaks
XRPD result after RH stress ([4]; ~75% RH, 1 week): broad peaks, similar to cocrystal 1+ peak at ˜5°2θ
XRPD result after RH stress ([4]; ~75% RH, 1 week, listed as Cocrystal 1): broad peaks, similar to cocrystal 1 with an additional peak at approximately 5°2θ
XRPD result after RH stress ([4]; ~75% RH, 2 weeks): broad peaks, similar to cocrystal 1+ peak at ˜5°2θ
XRPD result after RH stress ([4]; ~75% RH, 2 weeks, listed as Cocrystal 1): broad peaks, similar to cocrystal 1 with an additional peak at approximately 5°2θ
XRPD result after RH stress ([4]; ~75% RH, 3 days): broad peaks, similar to cocrystal 1+ peak at ˜5°2θ
XRPD result after RH stress ([4]; ~75% RH, 3 days, listed as Cocrystal 1): broad peaks, similar to cocrystal 1 with an additional peak at approximately 5°2θ
XRPD result after compression [7]: additional peaks at approximately 5 and 17°2θ were observed by XRPD, and the material was low crystalline
Properties (hygroscopicity, stability) [8]: likely falls apart upon heating; also recorded: hygroscopic

behaviour upon exposure to ambient conditions [3]: rapidly desolvates
form conversion after exposure to ambient conditions ([3]; relatively short exposure (ex. 5-6 hours)): convert to cocrystal 1
Structure (SMILES): C1CNCCN1.CC#N.COC1C=COC2(C)Oc3c(C)c(O)c4c(O)c(c5c(nc6cc(C)ccn65)c4c3C2=O)NC(=O)C(C)=CC=CC(C)C(O)C(C)C(O)C(C)C(OC(C)=O)C1C.COC1C=COC2(C)Oc3c(C)c(O)c4c(O)c(c5c(nc6cc(C)ccn65)c4c3C2=O)NC(=O)C(C)=CC=CC(C)C(O)C(C)C(O)C(C)C(OC(C)=O)C1C (stereo not drawn) [cocrystal 2, rifaximin:piperazine cocrystal 2]
form conversion after exposure to ambient conditions ([3]; longer exposure (ex. 12 days)): conversion to material similar to cocrystal 1, but exhibiting broad peaks with additional peaks at approximately 5 and 17°2θ

d10 [1]: 3.857 μm
d50 [1]: 79.844 μm
d90 [1]: 290.353 μm
Structure (SMILES): CO[C@H]1/C=C/O[C@@]2(C)Oc3c(C)c(O)c4c(O)c(c5c(nc6cc(C)ccn65)c4c3C2=O)NC(=O)/C(C)=C\C=C\[C@H](C)[C@H](O)[C@@H](C)[C@@H](O)[C@@H](C)[C@H](OC(C)=O)[C@@H]1C [η, rifaximin]
